# Where two headings read alike, the source gives them in different places.
# Tests used:
# histamine H2 receptor [1] = target: T1, histamine H2 receptor (Cavia porcellus, UniProt P47747); test: histamine H2 antagonism activity on the isolated guinea pig atrium (chronotropic response to histamine); assay type: cell-based, guinea pig (Hartley strain); details: experimental compound 10 μg/ml, histamine 0.05-2.5 μg/ml
# T1 construct: histamine chronotropic response
# Description: The histamine H2 antagonism activity of these piperidinyl-alkyl-benzamide compounds was tested on the isolated guinea pig atrium. The atria from Hartley strain guinea pigs were dissected and suspended in 25 ml of McEwen's solution and attached to a transducer. Spontaneous atrial rate was determined from the recorder tracing. Chronotropic responses to increasing concentrations of histamine (0.05-2.5 μg/ml) were evaluated in the presence of placebo or experimental compound. Results are expressed in Table I as the ratio of concentration of histamine required to increase atrial rate by 50 beats/minute:concentration of histamine required to increase atrial rate by 50 beats/minute in the presence of experimental compound, 10 μg/ml.
# histamine H2 receptor [2] = test: histamine H2 antagonist activity in vivo: block of histamine-stimulated gastric acid secretion in the lumen-perfused anesthetized rat; design: species or system rat (Sprague Dawley); details: urethane-anesthetized rat; antagonist 0.24 mg/kg rapid I.V.; histamine 0.13 μmol/kg/hr; compounds as hydrochloride salts
# Description: Sprague Dawley rats weighing between 150-200 g were used for the evaluations. Perfusion was carried out with 5% glucose solution at 37° C. Administration of histamine and test compounds was carried out by rapid I.V. injection via cannulated jugular vein. Doses of 0.13 μmol/kg/hr. of histamine were used, and 0.24 mg/kg of antagonist test compound.
# isolated rat uterus = test: block of the contractile response to histamine of the isolated rat uterus; assay type: cell-based, rat (Sprague Dawley, female); details: read-out: EC50 (concentration of experimental compound required to block the contractile effect of histamine by 50%)
# Description: Further evaluation involved testing the ability of the piperidinyl-alkyl-benzamides to block the response to histamine by the isolated rat uterus. Female Sprague Dawley rats weighing approximately 150 g were injected with diethylstilbesterol (0.15 mg/rat) fifteen hours prior to sacrifice. […] The results are expressed as the % change in the contractile response to histamine relative to placebo-histamine evaluation in Table III.
# histamine H2 receptor [3] = test: histamine H2-receptor antagonist activity in standard pharmacological tests (Tables I, II and III); details: result in words
# Description: The histamine H2 antagonism activity of these piperidinyl-alkyl-benzamide compounds was tested on the isolated guinea pig atrium. The atria from Hartley strain guinea pigs were dissected and suspended in 25 ml of McEwen's solution and attached to a transducer. Spontaneous atrial rate was determined from the recorder tracing. Chronotropic responses to increasing concentrations of histamine (0.05-2.5 μg/ml) were evaluated in the presence of placebo or experimental compound. […]
# The piperidine-alkyl-benzamides, as their hydrochloride salts, were evaluated for histamine H2 antagonist activity, in vivo, by their ability to block the stimulation of acid secretion by histamine from the lumen-perfused anesthetized (urethane) rat preparation as described in Ash and Shield, Br. J. Pharmacol. Chemotherapy 27, 427 (1966) and Durant, et al., J. Med. Chem. 18, 905 (1975). […]
# Further evaluation involved testing the ability of the piperidinyl-alkyl-benzamides to block the response to histamine by the isolated rat uterus. […] Contractile responses were evaluated after the addition of placebo; after the addition of experimental compounds; and after the addition of histamine (25 μg/ml). The results are expressed as the % change in the contractile response to histamine relative to placebo-histamine evaluation in Table III. […]
# The product was evaluated according to Tables I, II, and III above.
# [4] = isolated rat uterus, histamine 25 μg/ml, diethylstilbesterol-primed
# T1 sequence (P47747 whole entry): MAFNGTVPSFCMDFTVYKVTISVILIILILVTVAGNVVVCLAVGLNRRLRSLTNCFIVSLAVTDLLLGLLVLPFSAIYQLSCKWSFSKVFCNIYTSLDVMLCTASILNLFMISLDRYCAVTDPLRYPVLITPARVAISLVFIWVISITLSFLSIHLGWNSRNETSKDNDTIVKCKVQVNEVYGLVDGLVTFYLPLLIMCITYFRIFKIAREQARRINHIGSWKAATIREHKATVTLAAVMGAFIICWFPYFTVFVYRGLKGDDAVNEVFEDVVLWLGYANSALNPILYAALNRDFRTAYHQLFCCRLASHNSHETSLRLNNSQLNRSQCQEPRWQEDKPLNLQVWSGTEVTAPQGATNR
HISTAMINE RATIO (concentration of histamine required to increase atrial rate by 50 beats/minute : same in the presence of experimental compound) (histamine H2 receptor [1]),EC50 (isolated rat uterus; [4]),Compound,MEAN % INHIBITION OF GASTRIC ACID SECRETION (histamine H2 receptor [2]),EC50 (isolated rat uterus; Rattus norvegicus),histamine H2-receptor antagonist activity (histamine H2 receptor [3])
0.005,0.38 µg/mL,"O=C(NCC1CCNCC1)c1ccccc1 [Example 1, N-(4-Piperidinylmethyl)benzamide]",40 ± 6%,,significant amount of histamine H2 --receptor antagonist activity
0.004,0.31 µg/mL,"Cc1ccc(C(=O)NCC2CCNCC2)cc1 [Example 2, N-(4-piperidinylmethyl)-p-methylbenzamide]",52 ± 5%,,

Compound,HISTAMINE RATIO (concentration of histamine required to increase atrial rate by 50 beats/minute : same in the presence of experimental compound) (histamine H2 receptor [1]),EC50 (isolated rat uterus; [4]),MEAN % INHIBITION OF GASTRIC ACID SECRETION (histamine H2 receptor [2]),EC50 (isolated rat uterus; Rattus norvegicus),histamine H2-receptor antagonist activity (histamine H2 receptor [3])
"CN/C(=N/CCSCc1nc[nH]c1C)NC#N [Cimetidine, reference compound]",0.0025,,78 ± 8%,0.3 µg/mL,

# From patent US4310532A, “Methods and piperidinyl-alkyl-benzamide composition for inhibiting H2 histamine receptors” (The University of Toledo, priority 1980, dated 1982)
